{
  "source": "patent US20080226565A1",
  "about": "“Anticariogenic Proteins & Peptides & Saccharides” (priority 2004, published 2008)",
  "key": {"[1]": {"assay": "Solubility in water", "type": "physicochemical"}, "[2]": {"test_system": "aerobes isolated from the oral cavity", "assay": "Susceptibility (MIC), agar dilution, aerobes from the oral cavity", "type": "cell-based, aerobic bacteria", "details": "explored range 0.2 to 3.5 mg/ml", "method": "(§1) The investigations included more than hundred strains isolated from the oral cavity: : anaerobes, microaerophilic bacteria, aerobes, Streptococcus spp. and yeast like fungi. The microorganisms were isolated from saliva, mucosal membrane, gingival pockets and caries decay. The susceptibility (MIC) of bacteria and yeastlike fungi were determined by means of plate dilution technique in agar.\n(§2) The investigated samples were dissolved in sterile distilled water (immediately before the experiment) to obtain the following concentrations: 3.5, 1.7, 0.8, 0.4 and 0.2 mg/ml and were added into appropriate agar. The plates were inoculated using a Steers multipoint inoculator. Inoculum contained 10^6 CFU/spot. In each experimental series, the growth of strains on the culture medium without the compounds investigated was checked. The concentration at which no macroscopic growth of the microbes was observed on the medium was regarded as the lowest concentration, inhibiting the growth of microbes (MIC). The examinations of the susceptibility of microbes to the peptides were carried out twice.\nAnaerobes. The susceptibility of bacteria was determined by means of the agar dilution methods with Brucella agar supplemented with 5% defibrinated sheep's blood, menadione and hemin. Sample solutions with concentrations from of 3.5-0.2 mg/ml were added into agar. The agar plate without investigated samples was included as a bacterial growth control. The inoculum of 10^6 CFU/ml was applied to the agar plates with Steers replicator. Incubation was performed for 48 hrs at 37° C. (310° K) in anaerobic jars containing a mixture of 10% CO2, 10% H2 and 80% N2, in the presence of palladium catalyst and indicator of anaerobiosis. Microaerophilic bacteria. The susceptibility of bacteria was determined by means of the agar dilution methods with Brucella agar supplemented with 5% sheep's blood. Samples solutions with concentrations from of 3.5- 0.2 mg/ml were added into agar. The agar plate without investigated samples was included as a bacterial growth control. The inoculum of 10^6 CFU/ml was applied to the agar plates with Steers replicator. The incubation was performed at 37° C. in anaerobic jars with Campy Pak (bio Merieux) for 48 hours. Streptococcus spp. The susceptibility of bacteria was determined by means of the agar dilution methods with Mueller-Hinton agar supplemented with 5% sheep's blood. Samples solutions with concentrations from of 3.5- 0.2 mg/ml were added into agar. The agar plate without investigated samples was included as a bacterial growth control. […] The susceptibility to investigated samples was determined by means of the plate dilution technique in Mueller-Hinton agar. […] The susceptibility of fungi to investigated samples was determined by means of the plate dilution technique in Sabouraud's agar. […]"}, "[3]": {"test_system": "anaerobes isolated from the oral cavity", "assay": "Susceptibility (MIC), agar dilution, anaerobes from the oral cavity", "type": "cell-based, anaerobic bacteria", "details": "explored range 0.2 to 3.5 mg/ml", "method": "as §1, §2\nAnaerobes. The susceptibility of bacteria was determined by means of the agar dilution methods with Brucella agar supplemented with 5% defibrinated sheep's blood, menadione and hemin. Sample solutions with concentrations from of 3.5-0.2 mg/ml were added into agar. The agar plate without investigated samples was included as a bacterial growth control. The inoculum of 10^6 CFU/ml was applied to the agar plates with Steers replicator. Incubation was performed for 48 hrs at 37° C. (310° K) in anaerobic jars containing a mixture of 10% CO2, 10% H2 and 80% N2, in the presence of palladium catalyst and indicator of anaerobiosis. Microaerophilic bacteria. The susceptibility of bacteria was determined by means of the agar dilution methods with Brucella agar supplemented with 5% sheep's blood. Samples solutions with concentrations from of 3.5- 0.2 mg/ml were added into agar. The agar plate without investigated samples was included as a bacterial growth control. The inoculum of 10^6 CFU/ml was applied to the agar plates with Steers replicator. The incubation was performed at 37° C. in anaerobic jars with Campy Pak (bio Merieux) for 48 hours. Streptococcus spp. The susceptibility of bacteria was determined by means of the agar dilution methods with Mueller-Hinton agar supplemented with 5% sheep's blood. Samples solutions with concentrations from of 3.5- 0.2 mg/ml were added into agar. The agar plate without investigated samples was included as a bacterial growth control. The inoculum of 10^6 CFU/ml was applied to the agar plates with Steers replicator. Incubation was performed for 24 hrs at 37° C. (310° K) in anaerobic jars containing a mixture of 10% CO2 and 90% N2. Aerobes. The susceptibility to investigated samples was determined by means of the plate dilution technique in Mueller-Hinton agar. Samples solutions with concentrations from of 3.5- 0.2 mg/ml were added into agar. The agar plate without investigated samples was included as a bacterial growth control. The inoculum of 10^6 CFU/ml was applied to the agar plates with Steers replicator. Plates were incubated for 24 hrs in 37° C. under aerobic conditions. Yeast like fungi. The susceptibility of fungi to investigated samples was determined by means of the plate dilution technique in Sabouraud's agar. Samples solutions with concentrations from of 3.5- 0.2 mg/ml were added into agar. […]"}},
  "data": [
    {"substance": "3-hydroxyphthalated e-polylysine [Product 27]", "values": [
      {"measurement": "pH at which soluble in water", "setting": "[1]", "value": "above 9"},
      {"measurement": "activity against aerobes", "setting": "[2]", "value": "not active"},
      {"measurement": "activity against anaerobes", "setting": "[3]", "value": "less effective"}
    ]}
  ]
}
